Measurements: US20190218214A1, “Inhibition of BMP Signaling Compounds, Compositions and Uses Thereof” (Vanderbilt University, priority 2016, published 2019)

Key:
BMP4 = BMP4 biological assay (Table 3); type: cell-based
ALK6 = ALK6 (Homo sapiens, UniProt O00238); assay: Selectivity Ki, ALK6; type: biochemical
[1] = Plasma protein binding, mouse; type: in vitro ADME; conditions: read-out: Plasma protein binding (% Fu) Mouse
ALK1 = ALK1 (Homo sapiens, UniProt P37023); assay: Selectivity Ki, ALK1; type: biochemical
Sequence of ALK1 (P37023 22-503, species assumed): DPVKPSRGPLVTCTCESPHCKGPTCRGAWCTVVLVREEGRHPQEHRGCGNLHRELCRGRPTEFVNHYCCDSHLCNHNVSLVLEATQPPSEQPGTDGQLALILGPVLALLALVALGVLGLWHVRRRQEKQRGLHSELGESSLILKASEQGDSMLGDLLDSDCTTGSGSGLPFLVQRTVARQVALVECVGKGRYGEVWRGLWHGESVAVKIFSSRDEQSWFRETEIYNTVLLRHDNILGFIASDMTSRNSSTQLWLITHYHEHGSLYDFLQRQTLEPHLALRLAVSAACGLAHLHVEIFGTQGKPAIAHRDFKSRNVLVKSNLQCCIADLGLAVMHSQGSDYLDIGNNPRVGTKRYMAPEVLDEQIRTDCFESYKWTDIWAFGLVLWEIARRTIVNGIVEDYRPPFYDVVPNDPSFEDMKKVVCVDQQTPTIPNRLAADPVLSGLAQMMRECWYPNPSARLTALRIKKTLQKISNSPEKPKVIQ

ALK3 = ALK3 (Homo sapiens, UniProt P36894); assay: Selectivity Ki, ALK3; type: biochemical
Sequence of ALK3 (P36894 24-532, species assumed): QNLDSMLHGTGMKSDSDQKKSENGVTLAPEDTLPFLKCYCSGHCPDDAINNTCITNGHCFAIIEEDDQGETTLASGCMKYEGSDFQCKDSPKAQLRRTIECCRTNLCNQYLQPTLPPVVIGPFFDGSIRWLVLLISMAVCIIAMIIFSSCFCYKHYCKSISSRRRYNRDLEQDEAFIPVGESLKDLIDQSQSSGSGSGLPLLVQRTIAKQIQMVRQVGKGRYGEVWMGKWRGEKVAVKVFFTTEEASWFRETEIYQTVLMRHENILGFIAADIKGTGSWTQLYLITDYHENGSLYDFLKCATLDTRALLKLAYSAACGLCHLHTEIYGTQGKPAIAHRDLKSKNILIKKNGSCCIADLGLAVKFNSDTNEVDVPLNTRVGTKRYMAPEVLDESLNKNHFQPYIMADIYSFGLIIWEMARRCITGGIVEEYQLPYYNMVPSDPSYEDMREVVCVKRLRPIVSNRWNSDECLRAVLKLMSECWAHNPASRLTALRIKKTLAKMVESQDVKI

TGFβR2 = TGFβR2 (Homo sapiens, UniProt P37173); assay: Selectivity Ki, TGFβR2; type: biochemical
Sequence of TGFβR2 (P37173 23-567): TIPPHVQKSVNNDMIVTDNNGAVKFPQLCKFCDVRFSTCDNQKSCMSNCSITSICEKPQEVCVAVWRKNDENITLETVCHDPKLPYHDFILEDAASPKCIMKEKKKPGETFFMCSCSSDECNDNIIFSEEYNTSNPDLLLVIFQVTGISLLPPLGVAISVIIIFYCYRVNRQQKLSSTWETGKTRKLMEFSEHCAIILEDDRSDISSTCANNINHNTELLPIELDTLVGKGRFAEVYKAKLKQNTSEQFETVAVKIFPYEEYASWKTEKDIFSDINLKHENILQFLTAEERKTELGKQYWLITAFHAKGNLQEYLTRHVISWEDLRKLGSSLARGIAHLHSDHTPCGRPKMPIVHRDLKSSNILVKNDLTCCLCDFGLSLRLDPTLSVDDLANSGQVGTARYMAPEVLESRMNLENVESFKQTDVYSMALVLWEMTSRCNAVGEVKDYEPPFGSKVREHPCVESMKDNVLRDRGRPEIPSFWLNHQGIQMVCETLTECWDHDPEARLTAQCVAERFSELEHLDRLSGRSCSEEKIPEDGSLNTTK

[2] = In vitro DMPK intrinsic clearance, human; type: in vitro ADME
[3] = Plasma protein binding, human; type: in vitro ADME; conditions: read-out: Plasma protein binding (% Fu) Human
ALK5 = target: T1, ALK5 (Homo sapiens, UniProt P36897); assay: Selectivity Ki, ALK5; type: biochemical
T1 sequence (P36897 34-503): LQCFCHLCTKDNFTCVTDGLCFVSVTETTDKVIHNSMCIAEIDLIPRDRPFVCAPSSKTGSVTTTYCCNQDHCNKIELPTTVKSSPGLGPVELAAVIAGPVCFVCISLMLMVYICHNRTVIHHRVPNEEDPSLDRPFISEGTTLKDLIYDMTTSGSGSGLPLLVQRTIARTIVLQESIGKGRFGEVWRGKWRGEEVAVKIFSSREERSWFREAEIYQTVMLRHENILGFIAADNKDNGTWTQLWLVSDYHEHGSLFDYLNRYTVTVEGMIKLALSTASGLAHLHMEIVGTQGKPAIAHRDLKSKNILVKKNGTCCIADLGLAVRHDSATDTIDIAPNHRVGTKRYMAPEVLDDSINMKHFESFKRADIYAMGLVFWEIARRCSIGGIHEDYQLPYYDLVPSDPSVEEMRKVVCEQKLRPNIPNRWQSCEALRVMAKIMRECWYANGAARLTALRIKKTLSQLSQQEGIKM

ALK2 = target: T2, ALK2 (Homo sapiens, UniProt Q04771); assay: Selectivity Ki, ALK2; type: biochemical
T2 sequence (Q04771 21-509): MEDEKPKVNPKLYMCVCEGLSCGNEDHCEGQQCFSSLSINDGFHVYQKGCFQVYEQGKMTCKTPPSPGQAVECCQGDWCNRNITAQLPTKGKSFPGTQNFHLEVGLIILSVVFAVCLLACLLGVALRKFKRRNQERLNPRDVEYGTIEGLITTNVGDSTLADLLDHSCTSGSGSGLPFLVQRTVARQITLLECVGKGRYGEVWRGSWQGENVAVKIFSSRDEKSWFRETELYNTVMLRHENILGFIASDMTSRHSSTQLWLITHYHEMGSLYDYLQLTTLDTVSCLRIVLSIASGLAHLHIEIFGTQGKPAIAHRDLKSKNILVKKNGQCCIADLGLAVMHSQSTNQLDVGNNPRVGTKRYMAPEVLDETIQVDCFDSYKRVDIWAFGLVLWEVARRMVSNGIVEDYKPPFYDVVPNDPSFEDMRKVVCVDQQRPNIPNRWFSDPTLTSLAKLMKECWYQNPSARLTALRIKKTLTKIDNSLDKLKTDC

KDR = KDR (Homo sapiens, UniProt P35968); assay: Selectivity Ki, KDR; type: biochemical
Sequence of KDR (P35968 20-1356, species assumed): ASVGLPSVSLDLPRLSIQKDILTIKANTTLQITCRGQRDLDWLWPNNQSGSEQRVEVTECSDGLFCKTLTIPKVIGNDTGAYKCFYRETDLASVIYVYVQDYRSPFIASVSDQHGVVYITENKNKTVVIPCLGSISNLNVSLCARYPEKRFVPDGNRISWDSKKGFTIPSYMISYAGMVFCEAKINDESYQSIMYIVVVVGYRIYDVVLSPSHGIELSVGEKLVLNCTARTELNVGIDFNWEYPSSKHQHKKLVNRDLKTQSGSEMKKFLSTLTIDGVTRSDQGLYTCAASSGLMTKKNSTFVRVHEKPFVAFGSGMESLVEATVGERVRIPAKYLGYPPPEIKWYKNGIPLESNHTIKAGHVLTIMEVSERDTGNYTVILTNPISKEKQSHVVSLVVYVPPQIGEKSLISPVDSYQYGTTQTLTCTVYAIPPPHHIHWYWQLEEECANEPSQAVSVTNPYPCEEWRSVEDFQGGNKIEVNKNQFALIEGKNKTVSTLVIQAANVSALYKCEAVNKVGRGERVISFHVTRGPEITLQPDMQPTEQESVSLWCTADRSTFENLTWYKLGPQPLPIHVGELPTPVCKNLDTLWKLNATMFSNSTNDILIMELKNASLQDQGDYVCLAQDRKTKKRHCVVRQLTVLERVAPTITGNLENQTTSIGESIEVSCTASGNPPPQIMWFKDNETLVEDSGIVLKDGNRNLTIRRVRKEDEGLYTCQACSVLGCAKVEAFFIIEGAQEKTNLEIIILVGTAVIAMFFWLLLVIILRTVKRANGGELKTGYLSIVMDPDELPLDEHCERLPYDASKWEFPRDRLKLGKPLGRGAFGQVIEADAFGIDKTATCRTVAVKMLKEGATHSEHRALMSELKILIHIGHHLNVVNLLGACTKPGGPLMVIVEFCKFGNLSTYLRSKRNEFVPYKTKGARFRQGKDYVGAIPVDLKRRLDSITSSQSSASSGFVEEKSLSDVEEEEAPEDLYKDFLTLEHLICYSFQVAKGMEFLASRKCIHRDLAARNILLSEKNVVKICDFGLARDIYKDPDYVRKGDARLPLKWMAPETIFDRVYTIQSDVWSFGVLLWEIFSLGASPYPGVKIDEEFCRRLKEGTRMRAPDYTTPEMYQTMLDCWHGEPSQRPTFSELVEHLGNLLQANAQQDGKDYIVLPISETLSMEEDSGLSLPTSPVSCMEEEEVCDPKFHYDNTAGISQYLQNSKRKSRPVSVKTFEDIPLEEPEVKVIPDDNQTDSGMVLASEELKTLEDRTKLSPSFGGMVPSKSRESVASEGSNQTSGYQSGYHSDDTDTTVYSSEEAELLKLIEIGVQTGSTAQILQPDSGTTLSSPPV

ALK4 = target: T3, ALK4 (Homo sapiens, UniProt P36896); assay: Selectivity Ki, ALK4; type: biochemical
T3 sequence (P36896 24-505): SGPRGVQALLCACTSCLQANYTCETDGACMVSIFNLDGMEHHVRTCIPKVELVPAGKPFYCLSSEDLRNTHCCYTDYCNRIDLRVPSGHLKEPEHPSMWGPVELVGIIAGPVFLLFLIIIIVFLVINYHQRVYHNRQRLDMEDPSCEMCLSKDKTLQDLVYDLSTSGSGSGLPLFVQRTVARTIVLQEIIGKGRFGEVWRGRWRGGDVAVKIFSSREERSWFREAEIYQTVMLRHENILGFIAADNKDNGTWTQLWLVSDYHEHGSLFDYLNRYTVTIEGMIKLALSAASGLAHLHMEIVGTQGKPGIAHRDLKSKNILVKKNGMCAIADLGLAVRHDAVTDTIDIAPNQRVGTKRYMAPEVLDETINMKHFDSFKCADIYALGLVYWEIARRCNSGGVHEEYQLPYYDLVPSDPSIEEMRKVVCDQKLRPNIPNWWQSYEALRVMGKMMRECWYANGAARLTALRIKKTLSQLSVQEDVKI

[4] = In vitro DMPK intrinsic clearance, mouse; type: in vitro ADME

Sequence of ALK6 (O00238 14-502): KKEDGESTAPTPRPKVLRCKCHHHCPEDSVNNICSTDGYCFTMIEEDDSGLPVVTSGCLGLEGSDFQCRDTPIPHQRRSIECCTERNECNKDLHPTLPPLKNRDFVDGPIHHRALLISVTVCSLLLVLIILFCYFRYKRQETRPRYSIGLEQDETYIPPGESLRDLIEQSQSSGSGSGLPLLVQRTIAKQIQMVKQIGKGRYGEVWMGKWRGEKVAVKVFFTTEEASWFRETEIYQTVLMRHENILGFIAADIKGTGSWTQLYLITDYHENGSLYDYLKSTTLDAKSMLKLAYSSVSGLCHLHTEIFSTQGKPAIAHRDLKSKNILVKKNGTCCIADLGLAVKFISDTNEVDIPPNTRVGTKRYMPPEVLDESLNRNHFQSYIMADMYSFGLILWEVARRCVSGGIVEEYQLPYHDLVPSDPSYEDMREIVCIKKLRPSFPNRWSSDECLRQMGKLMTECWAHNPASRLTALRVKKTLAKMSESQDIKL

COc1ccc2nc(C)cc(-c3cnc4cc(-c5ccc(C6CCN(C)CC6)cc5)ccn34)c2c1 [Compound 95]
IC50 (BMP4): 26.5 nM
Ki (ALK6): 97.8 nM
fraction unbound [1]: 0.006
Ki (ALK1): 831 nM
Ki (ALK3): < 5.1 nM
Ki (TGFβR2): 134 nM
CLint scaled ([2]; read-out: Intrinsic clearance hCLHEP): 13.3 mL/min/kg
CLint scaled ([2]; read-out: Intrinsic clearance hCLINT): 36.6 mL/min/kg
fraction unbound [3]: 0.015
Ki (ALK5): 822 nM
Ki (ALK2): 9.3 nM
Ki (KDR): 3260 nM
Ki (ALK4): 292 nM
CLint scaled ([4]; read-out: Intrinsic clearance mCLHEP): 48.9 mL/min/kg
CLint scaled ([4]; read-out: Intrinsic clearance mCLINT): 107 mL/min/kg
